# Columns and labels:
# [1] = zeta potential of particles in sodium bicarbonate buffer; assay type: physicochemical
# Protocol: Surface Charges of Heparin-DOCA Particle. Zeta potentials of heparin-DOCA particles in sodium bicarbonate buffer were measured according to procedures well known in the art. The negative potential of heparin-DOCA conjugate particles was decreased by mixing with free DOCA. This was due to the fact that the DOCA moiety coupled to heparin could be exposed on the surface of heparin-DOCA conjugate particles by mixing with free DOCA.
# [2] = background, literature; cited from earlier work
compound,measurement,setting,value
"C[C@H](CCC(=O)O)[C@H]1CC[C@H]2[C@@H]3CC[C@@H]4C[C@H](O)CC[C@]4(C)[C@H]3C[C@H](O)[C@]12C [Bile Acid, deoxycholic acid]",Zeta Potential,[1],−22.3 ± 11.4 mv
heparin,absorption in the GI tract,[2],not absorbed in the GI tract

# Source: patent US6589943B2, “Formulation of amphiphilic heparin derivatives for enhancing mucosal absorption” (Mediplex Corporation, Korea, priority 2001, dated 2003)
